Test results published in patent publication US20040208866A1, “Methods of regulating body weight” (priority 2002, published 2004).

How the values were obtained:
[1] = test system: antral portion of the stomach; assay: Gastrointestinal contractility: distance between transducing crystals on the antral stomach; type: in vivo, Sprague-Dawley rats
Source text: Two male Sprague-Dawley rats, approximately 12 weeks old (Harlan, Indianapolis, Ind.) were anesthetized with urethane and their stomachs were exposed through a small abdominal incision. Two 2.4 mm transducing crystals (Sonometrics, Ontario, Canada) were placed on the antral portion of the stomach such that circular contractions could be monitored as a change in the distance between the two crystals. The crystals were attached with VETBOND TISSUE ADHESIVE (3M, St. Paul, Minn.). […] The amplitude of the NE-induced decrease was approximately 50% of the acetylcholine-induced increase in distance. Both responses were transient. A negative control of […] of phosphate buffer solution (PBS) applied topically between the crystals had no effect. A 14 amino acid zsig33 peptide (zsig33-1, as shown in Example 4) was dissolved in PBS and […] was applied topically for a final concentration of 1 μg, 10 μg or 100 μg.

Balb C male mice = assay: Binding studies of FITC-labelled zsig33 peptides in situ after tail vein injection; type: in vivo; settings: FITC-labelled peptide, 0.5 mg per mouse by tail vein, 15 minutes circulation, fluorescent microscopy at 495 nm
Procedure: Ten week old Balb C male mice were anesthetized via intramuscular injection and tested for binding of zsig33 peptides in vivo.
Two peptides were tested: the first peptide, zsig33-1, (See Example 4) consisted of residues 24 to 37 of SEQ ID NO:2, and the second peptide, zsig33-2, consisted of residues 24 to 41 of SEQ ID NO:2. A single glycine was used as a negative control. Additionally, a “scrambled” negative control consisting of residues the first peptide which had been rearranged (SEQ ID NO:15) was also tested. The peptides and controls were coupled to fluorescein isothiocyantate (FITC, Molecular Probes, Eugene, Oreg.) in the following manner: The peptides, glycine control and FITC were dissolved in 0.1 M sodium bicarbonate at pH 9.0 to a concentration of 2.0 mg/ml for the peptides and glycine control and 5 mg/ml for FITC, avoiding exposure of the FITC to strong light. […] The buffer was changed daily and unbound FITC in the post-dialyzed buffer was measured by HPLC. […] Peptide- or glycine-bound FITC was determined by measuring the absorbance of the dialyzed FITC-bound material at 498 nm and dividing by the extinction coefficient of fluorescein, […]. The molar ratio of fluorescein to peptide (mole FITC/mole peptide) was then determined. […]

ob/ob mice [2] = assay: Glucose absorption after oral glucose challenge; type: in vivo; settings: 100 μg by oral gavage 30 minutes prior to oral glucose challenge, female ob/ob mice
Procedure: Eight female ob/ob mice, approximately 6 weeks old (Jackson Labs, Bar Harbor, Me.) were adapted to a 4 hour daily feeding schedule for two weeks. After two weeks on the feeding schedule, the mice were given 100 μg of a zsig33 peptide (zsig33-1, as shown in Example 4) in 100 μl sterile 0.1% BSA by oral gavage, immediately after their eating period (post-prandially). Thirty minutes later, the mice were challenged orally with a 0.5 ml volume of 25% glucose. Retroorbital bleeds were done to determine serum glucose levels. Blood was drawn prior to zsig33 dosing, prior to oral glucose challenge, and at 1, 2, 4, and 20 hours following the glucose challenge.

[3] = test system: stomachs of fasted male Sprague-Dawley rats; assay: Gastric emptying: transit of phenol red through the stomach; type: in vivo; settings: 1 μg applied topically to the stomach 5 minutes after gavage, read 30 minutes after the gavage
Procedure: The effect of topically applied zsig33 peptide (amino acid 24 to 37 of SEQ ID NO: 2) on the transit of phenol red through the stomachs of fasted male Sprague-Dawley rats (Harlan, Indianapolis, Ind.) was evaluated. The rats (6 animals, 8 weeks old) were fasted 24 hrs prior to being anesthetized with urethane (0.5 ml/100 grams of 25% solution). After anesthetizing, the animals were orally gavaged with 1 ml of Phenol Red solution (50 μg/ml in 2% methylcellulose solution).
The stomach of each animal was exposed through a small abdominal incision and either 1 μg zsig33 peptide or a 14 amino acid control of a scrambled sequence peptide was applied topically to the stomach five minutes following the gavage. The amount of Phenol Red remaining in the stomach was determined by measuring optical density of the extracted stomach contents 30 minutes after the gavage.

ob/ob mice [4] = assay: Body weight, food intake and glucose clearance, 14-day oral dosing; type: in vivo; settings: 1 μg/mouse orally twice daily for fourteen days, versus scrambled peptide
Procedure: Sixteen female ob/ob mice, 8 weeks old, (Jackson Labs, Bar Harbor, Me.) were adapted to a special 4 hour daily feeding schedule for two weeks. The were fed ad libitum from 7:30-11:30 am daily. After two weeks on the feeding schedule, the mice were divided into two groups of 8. One group was given 1.0 μg/mouse of zsig33-1 (14 amino acid peptide) and the other vehicle (a 14 amino acid scrambled sequence peptide) in […] sterile 0.1% BSQA by oral gavage just prior to receiving food, and at the end of the 4 hour feeding period. The mice were […] twice daily for fourteen days, during which time food intake and body weight was measured daily. On day 14, immediately after the second oral gavage of the zsig33-1 peptide, the mice were challenged orally with an 0.5 ml volume of 25% glucose. Retro-orbital bleeds were done to determine serum glucose levels immediately prior to administration of the zsig33-1 peptide or vehicle ([…].), and also at 0, 1, 2, and 4 hours following the glucose challenge.

Row | Compound | amplitude of the NE-induced decrease relative to the acetylcholine-induced increase in distance ([1]; 10 ml of 1 mM applied topically) | change in distance between the two crystals ([1]; 10 ml of 1 mM applied topically to the stomach, anesthetized rats) | fluorescence in duodenum, jejunum and kidney compared to the glycine and scrambled controls (Balb C male mice) | change in crystal distance ([1]; 1 μg peptide in PBS applied topically) | rate and amplitude of the contractions ([1]; 10 μg and 100 μg applied topically, compared with 1 μg) | post-prandial glucose absorption (serum glucose) (ob/ob mice [2]) | reduction of the amount of Phenol Red remaining in the stomach compared to a scrambled peptide [3] | daily body weight (ob/ob mice [4]) | daily food intake (ob/ob mice [4])
1 | NC[C@H](O)c1ccc(O)c(O)c1 [norepinephrine, reference compound] | approximately 50% | reduction in the distance between the two crystals | – | – | – | – | – | – | –
2 | zsig33-1: 14 amino acid peptide corresponding to residue 24 (Gly) to residue 37 (Gln) of SEQ ID NO:2 (GSSFLSPEHQRVQQ; listed as Homo sapiens) | – | – | increased fluorescence in duodenum, jejunum and in the collecting ducts and convoluted tubules of the kidney | sustained, rhythmic increase and decrease in crystal distance | enhanced responses in both rate and amplitude | enhanced post-prandial glucose absorption | approximately 25% | no affect | no affect
3 | zsig33-2: peptide consisting of residues 24 to 41 of SEQ ID NO:2 (GSSFLSPEHQRVQQRKES; listed as Homo sapiens) | – | – | increased fluorescence in duodenum, jejunum and in the collecting ducts and convoluted tubules of the kidney | – | – | – | – | – | –
